Measurements from patent US4761419A, “6-(((substituted)quinolinyl)ethyl)-and ethenyl)tetrahydro-4-hydroxypyran-2-one inhibitors of cholesterol biosynthesis” (Warner-Lambert Company, priority 1987, dated 1988).

Test system: cholesterol biosynthesis (sterol synthesis, rat liver homogenate)
Experiment: CSI screen: incorporation of 14C-acetate into nonsaponifiable lipid by rat liver homogenate (inhibition of cholesterol biosynthesis)
Assay type: biochemical
Settings: rat liver homogenate from cholestyramine-fed rats; inhibition of sterol synthesis over a one-hour period
Description: The ability of compounds of the present invention to inhibit the biosynthesis of cholesterol was measured by a method (designated CSI screen) which utilizes the procedure described by R. E. Dugan et al, Archiv. Biochem. Biophys., (1972), 152, 21-27. In this method, the level of HMG-CoA enzyme activity in standard laboratory rats is increased by feeding the rats a chow diet containing 5cholestyramine for four days, after which the rats are sacrificed.
The rat livers are homogenized, and the incorporation of 14C-acetate into nonsaponifiable lipid by the rat liver homogenate is measured. The micromolar concentration of compound required for 50inhibition of sterol synthesis over a one-hour period is measured, and expressed as an IC50 value.

Compound | IC50 [nM]
Cc1nc2ccc(Cl)cc2c(-c2ccc(F)cc2)c1/C=C/[C@@H]1C[C@@H](O)CC(=O)O1 (relative stereo) [CHCH, 4-Fluorophenyl, CH3, H, Cl, H, H, [4α,6β(E)]-6[-2-[6-Chloro-4-(4-fluorophenyl)-2-methyl-3-quinolinyl]ethenyl]-tetrahydro-4-hydroxy-2H-pyran-2-one] | 350
CC(C)c1nc2ccc(Cl)cc2c(-c2ccc(F)cc2)c1/C=C/[C@@H]1C[C@@H](O)CC(=O)O1 (relative stereo) [[4α,6β(E)]6-[2-[6-Chloro-4-(4-fluorophenyl)-2-(1-methylethyl)-3-quinolinyl]ethenyl]tetrahydro-4-hydroxy-2H-pyran-2-one] | 32
